Measurements: patent US20240109897A1, “MODULATORS OF FPR1 AND METHODS OF USING THE SAME” (BEIJING TIANTAN HOSPITAL, priority 2021, published 2024)

Assays:
[1] = system: ICH mice; experiment: Neurological function assessment (mNSS, corner-turning test, rotarod test) in ICH mouse model; format: in vivo; conditions: vs vehicle
Text: (§1) The intracerebral hemorrhage (ICH) model in mice was used to illustrate the protective benefits of the compounds of this disclosure, and FIG. 1 depicts the procedure in preparing this model. ICH was induced in C57 B/L6 male mice by the injection of an autologous blood or collagenase as previously described (Lauer et al., Circulation 124: 1654-1662 (2011); Rynkowski et al., Nat. Protoc. 3:122-128 (2008)). Mice were anesthetized using isoflurane inhalation and fixed on a stereotactic frame. A burr hole was drilled on the right side of the skull at 2.3 mm lateral to the midline and 0.5 mm anterior to the bregma. For the autologous blood model, 30 μl of non-heparinized blood was withdrawn from the angular vein. The first 5 μl blood was injected at a depth of 3 mm beneath the hole, and the rest 25 μl blood were injected at 3.7 mm beneath the hole with a rate of 1 μl/min. In the collagenase model, 0.038 U of the bacterial collagenase (in 0.5 μl saline) was infused to the striatum (0.5 mm anterior, 2.3 mm right lateral, and 3.5 mm deep relative to bregma) at a speed of 0.5 μl/min. Mice on the sham control were injected with an equal volume of saline. Throughout the procedure, the body temperature was maintained at 37° C. with a homeothermic blanket. […]
The neurological function assessment was performed by investigators who were blinded to the two treatment groups. The modified Neurological Severity Score (mNSS), corner-turning test, and rotarod test were conducted to evaluate the neuro-deficits of the ICH mice at defined time points as described (Li et al., Proc. Nat. Acad. Sci. USA 114:E396-E405 (2017)). mice were evaluated for motor function (muscle and abnormal movement), sensory (visual, tactile, and proprioceptive), and reflexes (pinna, corneal, startle reflexes). […] The corner-turning test was used to evaluate the sensorimotor damage to quantify the turning preference (right or left) upon approaching a 30° corner. […] The percentage of ipsilateral turns was then calculated. […] The duration of each mouse on the rod was recorded. […]

[2] = system: ICH mice; experiment: Brain water content in ICH mouse model; format: in vivo; conditions: 5 mg/kg/daily i.p., first dose 1 h after ICH onset, 24 h, vs vehicle
Text: as §1, with “blanket. After the surgery, mice were under observation with free access to food and water.” for “blanket.”
Brain water content was measured at day 1 after ICH. […]

[3] = day 1 and day 3 after ICH, 5 mg/kg i.p.

Cc1ccc(O)c(-c2[nH]nc3c2C(c2ccc(C(F)(F)F)cc2)N(C2CCOCC2)C3=O)c1 (racemic) [Compound 1, Rac-3-(2-hydroxy-5-methylphenyl)-5-(tetrahydro-2H-pyran-4-yl)-4-(4-(trifluoromethyl)phenyl)-4,5-dihydropyrrolo[3,4-c]pyrazol-6(2H)-one]
neurological outcomes ([1]; 5 mg/kg/daily i.p., first dose 1 h after ICH onset): improved | locomotor function scores (corner turn test, rotarod test) [1, 3]: improved | modified neurological symptom score (mNSS) [1, 3]: improved | total brain water content [2]: significantly reduced
